Data taken from patent US8653024B2, “Use of AMPs for treatment of UTI/cystitis” (Adenium Biotech Aps, priority 2009, dated 2014).
Values joined by “and” are separate entries in the source; they are usually repeats but may differ in a detail not shown here. Equal entries are not always repeated. “Also recorded” adds a separate entry of the source.

Experiments:
[1] = test system: Escherichia coli DSA 443; assay: Murine urinary tract infection (UTI) model, Example 1: colony counts in urine, bladder and kidney; type: in vivo; details: for Mean colony counts + SEM, bladder day 3 / Mean colony counts + SEM, kidney day 3 / Mean colony counts + SEM, urine day 1 / Mean colony counts + SEM, urine day 2 / Mean colony counts + SEM, urine day 3: female OF-1 mice; for Mean colony counts + SEM, urine day 1: day 1 post infection, before first treatment; for Mean colony counts + SEM, urine day 2: day 2 post infection; for Bacterial reduction in the urine compared to vehicle treatment: p<0.001
[2] = test system: Escherichia coli DSA 443; assay: Murine urinary tract infection model, Example 2 (carried out as described in Example 1); type: in vivo; details: for Mean colony counts ± SEM, bladder day 3 / Mean colony counts ± SEM, kidney day 3 / Mean colony counts ± SEM, urine day 1 / Mean colony counts ± SEM, urine day 3: mice; for Mean colony counts ± SEM, bladder day 3 / Mean colony counts ± SEM, kidney day 3 / Mean colony counts ± SEM, urine day 3: day 3 post infection; for Mean colony counts ± SEM, urine day 1: day 1 post infection, before first treatment; for Bacterial reduction in the kidneys compared to vehicle treatment / Bacterial reduction in the urine compared to vehicle treatment / Bacterial reduction in the bladder compared to vehicle treatment: 10 mg/kg i.v. BID; for Bacterial reduction in the kidneys compared to vehicle treatment: p<0.05; for Effect of treatment compared to Meropenem: 10 mg/kg vs 40 mg/kg Meropenem; for Bacterial reduction in the urine compared to vehicle treatment / Bacterial reduction in the bladder compared to vehicle treatment: after 2 days of treatment; for Bacterial reduction in the urine compared to vehicle treatment: p<0.001; for Bacterial reduction in the bladder compared to vehicle treatment: p<0.01
Experimental: The efficacy of Arenicin administered BID i.v. days 1 and 2 post infection at a rate of 10 ml/kg to female OF-1 mice (14/group), at a dosage of 10 mg/kg, was assessed against E. coli DSA 443. Treatment with 40 mg/kg Meropenem was included as a positive control and treatment with vehicle was included as a negative control.
Starting on day −4 before inoculation, mice were given drinking water containing 5% glucose. On day 0, the bladder of each mouse was emptied of urine, and each mouse was inoculated with 50 microliters bacteria suspension (E. coli DSA 443 9.3 log10 CFU/ml) via a catheter in the urethra into the bladder.
Urine was sampled from all mice at 24 hours post infection, before the first treatment, and colony counts were determined. 48 and 72 hours post infection, urine was sampled from all mice and kept at room temperature until analyzed. CFU was determined in urine samples within 2-3 hours after sampling. On day 3, mice were sacrificed by cervical dislocation and the bladders and kidneys were collected and stored at −80° C. until analyses. Frozen organs were thawed and homogenized with steel beads on a tissue lyser. All samples, urine, kidney and bladder, were 10 fold diluted in saline and 20 microliter spots were applied on blue agar plates in duplicates. Also undiluted urine (100 microliters if possible) was spread on a separate agar plate to determine the colony counts lowest possible detection level (10 CFU/ml). All agar plates were incubated 18-22 hrs at 35° C. in ambient air.
The CFU numbers are log10 transformed before performing calculations to obtain a normal (or closer to normal) distribution. The data are presented below in Table 1 as mean±SEM. Significance levels were calculated with one-way ANOVA, Dunnett's multiple comparison test and are indicated by the stars in the figures.
The experiment was carried out as described in Example 1.
The efficacies of Variant1 and Variant2 (10 mg/kg) (formulated in Ringer acetate pH 6) were investigated following intravenous (i.v.) administration BID day 1 and day 2 post infection with Escherichia coli DSA 443 (clinical isolate, SSI) in a murine Urinary Tract Infection model. Treatment with 40 mg/kg Meropenem was included as a positive control group.

[3] = 10 mg/kg i.v. BID day 1 and day 2

`C[C@@H](O)[C@H]1C(=O)N2C(C(=O)O)=C(S[C@@H]3CN[C@H](C(=O)N(C)C)C3)[C@H](C)[C@H]12` [Meropenem, reference compound] was tested, and the “Bacterial loads in the kidneys compared to vehicle” value ([1]; 40 mg/kg, day 3 post infection) was “slightly, but not significantly, reduced”, the “Mean colony counts + SEM, bladder day 3” value ([1]; bladder, day 3 post infection, 40 mg/kg (positive control)) was 3.9 ± 0.3 log10 CFU and the “Mean colony counts + SEM, kidney day 3” value ([1]; day 3 post infection, 40 mg/kg (positive control)) was 1.8 ± 0.3 log10 CFU. The “Mean colony counts + SEM, urine day 1” value ([1]; urine, 40 mg/kg group (positive control)) was 7.0 ± 0.4 log10 CFU, the “Mean colony counts + SEM, urine day 2” value ([1]; urine, 40 mg/kg (positive control)) was 2.7 ± 0.3 log10 CFU and the “Mean colony counts + SEM, urine day 3” value ([1]; urine, day 3 post infection, 40 mg/kg (positive control)) was 2.1 ± 0.3 log10 CFU. For the same molecule, the “Mean colony counts ± SEM, bladder day 3” value ([2]; 40 mg/kg (positive control)) was 3.9 ± 0.2 log10 CFU, the “Mean colony counts ± SEM, kidney day 3” value ([2]; 40 mg/kg (positive control)) was 1.8 ± 0.4 log10 CFU and the “Mean colony counts ± SEM, urine day 1” value ([2]; 40 mg/kg group (positive control)) was 6.3 ± 1.0 log10 CFU. For the same molecule, the “Mean colony counts ± SEM, urine day 3” value ([2]; 40 mg/kg (positive control)) was 1.8 ± 0.4 log10 CFU.

“Arenicin: antimicrobial polypeptide having the amino acid sequence shown in SEQ ID NO: 1 (GFCWYVCVYRNGVRVCYRRCN; mat_peptide (1)..(21); listed as Arenicola marina)” was tested, and the “Effect (CFU reduction) compared to Meropenem” value ([1]; 10 mg/kg vs 40 mg/kg Meropenem, urine, bladder) was “comparable to that of Meropenem; also recorded: comparable to the effect of the Meropenem”, the “Bacterial reduction in the urine compared to vehicle treatment” value (“Bacterial reduction in the urine” for short) ([1]; after 1 day of treatment, 10 mg/kg i.v. BID) was “significant bacterial reduction” and the “Bacterial reduction in the urine” value ([1]; after 2 days of treatment, 10 mg/kg i.v. BID, 10 mg/kg) was “significantly (p<0.001) reduced the bacterial loads; also recorded: significant bacterial reduction”. The “Bacterial reduction in the bladder compared to vehicle treatment” value (from here on “Bacterial reduction in the bladder”) ([1]; after 2 days of treatment, 10 mg/kg i.v. BID, p<0.01, 10 mg/kg) was “Significant lower (p<0.01) CFU levels; also recorded: significant bacterial reduction”, the “Bacterial reduction in the kidneys compared to vehicle treatment” value (shortened to “Bacterial reduction in the kidneys”) ([1]; day 3 post infection, 10 mg/kg i.v. BID, 10 mg/kg) was “not significantly lower than the vehicle group; also recorded: slight reduction” and the “Mean colony counts + SEM, bladder day 3” value ([1]; bladder, day 3 post infection, 10 mg/kg i.v. BID days 1 and 2, 10 mg/kg) was 3.8±0.2 log10 CFU. For the same molecule, the “Mean colony counts + SEM, kidney day 3” value ([1]; day 3 post infection, 10 mg/kg i.v. BID days 1 and 2, 10 mg/kg) was 1.9±0.3 log10 CFU, the “Mean colony counts + SEM, urine day 1” value ([1]; urine, 10 mg/kg group, 10 mg/kg) was 6.9±0.3 log10 CFU and the “Mean colony counts + SEM, urine day 2” value ([1]; urine, after one day of treatment, 10 mg/kg i.v. BID, 10 mg/kg) was 3.2±0.5 log10 CFU. For the same molecule, the “Mean colony counts + SEM, urine day 3” value ([1]; urine, day 3 post infection, after completed treatment, 10 mg/kg i.v. BID days 1 and 2, 10 mg/kg) was 2.3±0.3 log10 CFU and 2.3 ± 0.2 log10 CFU.

With “Variant1: antimicrobial polypeptide of SEQ ID NO: 2; Y5N+Y17H substitution as compared to Arenicin (SEQ ID NO: 1) (GFCWNVCVYRNGVRVCHRRCN)” the “Bacterial reduction in the kidneys” value [2] was “significant bacterial reduction”, the “Effect of treatment compared to Meropenem” value [2] was “comparable to the effect of treatment with Meropenem” and the “Bacterial reduction in the urine” value [2] was “significant bacterial reduction”. For the same molecule, the “Bacterial reduction in the bladder” value [2] was “significant bacterial reduction”, the “Mean colony counts ± SEM, bladder day 3” value [2, 3] was 3.8 ± 0.4 log10 CFU and the “Mean colony counts ± SEM, kidney day 3” value [2, 3] was 1.3 ± 0.2 log10 CFU. For the same molecule, the “Mean colony counts ± SEM, urine day 1” value ([2]; 10 mg/kg group) was 7.1 ± 0.8 log10 CFU and the “Mean colony counts ± SEM, urine day 3” value [2, 3] was 2.6 ± 0.4 log10 CFU.

“Variant2: antimicrobial polypeptide of SEQ ID NO: 3; W4G+Y5H substitution as compared to Arenicin (GFCGHVCVYRNGVRVCYRRCN)” was tested, and the “Bacterial reduction in the kidneys” value [2] was “significant bacterial reduction”, the “Effect of treatment compared to Meropenem” value [2] was “comparable to the effect of treatment with Meropenem” and the “Bacterial reduction in the urine” value [2] was “significant bacterial reduction”. For the same molecule, the “Bacterial reduction in the bladder” value [2] was “significant bacterial reduction”, the “Mean colony counts ± SEM, bladder day 3” value [2, 3] was 3.7 ± 0.5 log10 CFU and the “Mean colony counts ± SEM, kidney day 3” value [2, 3] was 1.5 ± 0.4 log10 CFU. For the same molecule, the “Mean colony counts ± SEM, urine day 1” value ([2]; 10 mg/kg group) was 5.7 ± 1.0 log10 CFU and the “Mean colony counts ± SEM, urine day 3” value [2, 3] was 3.2 ± 0.5 log10 CFU.
